Earlier results, collected in patent US20230158012A1, “ORAL LIQUID FORMULATIONS OF LENVATINIB” (SHILPA MEDICARE LIMITED, priority 2020, published 2023).

Conditions: 5% w/w aqueous solution or suspension

| SMILES | pH value |
| --- | --- |
| O=C1O[C@H](CO)[C@@H](O)[C@H](O)[C@H]1O [Gluconolactone] | 2.40 |
| O=P([O-])([O-])O.[K+].[K+] [dipotassium hydrogenphosphate] | 9.11 |
| O=P([O-])([O-])O.[Na+].[Na+] [disodium hydrogenphosphate] | 9.26 |
| NCC(=O)O [glycine] | 6.17 |
| [O]=[Mg] [magnesium oxide] | 10.63 |
| O=C([O-])CC(O)(CC(=O)[O-])C(=O)[O-].[Na+].[Na+].[Na+] [sodium citrate] | 8.22 |
| [Na+].[OH-] [sodium hydroxide] | 13.56 |

Next, values leading:

| pH value | SMILES |
| --- | --- |
| 8.46 | CC(=O)[O-].[Na+] [sodium acetate] |
| 11.45 | O=C([O-])[O-].[Na+].[Na+] [sodium carbonate] |
| 8.15 | O=C([O-])O.[Na+] [sodium hydrogencarbonate] |
